Reference: patent publication US7378435B2, “Aryl-isoxazole-4-carbonyl-indole-carboxylic acid amide derivatives” (Hoffmann-La Roche Inc., priority 2005, dated 2008)
Like-named read-outs stand apart in the source and are kept apart here.

Target: T1, GABA A receptor α5β3γ2 (Homo sapiens, UniProt P18507+P31644)
T1 construct: expressed in transfected cells; host or cells: HEK293 (transiently transfected for the human receptors)
Assay: [3H]flumazenil competition binding, human GABA A α5β3γ2 receptors expressed in HEK293 cells
Description: The affinity of compounds at GABA A receptor subtypes was measured by competition for [3H]flumazenil (85 Ci/mmol; Roche) binding to HEK293 cells expressing rat (stably transfected) or human (transiently transfected) receptors of composition α1β3γ2, α2β3γ2, α3β3γ2 and α5β3γ2.
Cell pellets were suspended in Krebs-tris buffer (4.8 mM KCl, 1.2 mM CaCl2, 1.2 mM MgCl2, 120 mM NaCl, 15 mM Tris; pH 7.5; binding assay buffer), homogenized by polytron for ca. 20 sec on ice and centrifuged for 60 min at 4° C. (50000 g; Sorvall, rotor: SM24=20000 rpm). The cell pellets were resuspended in Krebs-tris buffer and homogenized by polytron for ca. 15 sec on ice. Protein was measured (Bradford method, Bio-Rad) and aliquots of 1 mL were prepared and stored at −80° C.
Radioligand binding assays were carried out in a volume of […] (96-well plates) which contained […] of cell membranes, [3H]flumazenil at a concentration of 1 nM for α1, α2, α3 subunits and 0.5 nM for α5 subunits and the test compound in the range of […]. Nonspecific binding was defined by 10^−5 M diazepam and typically represented less than 5% of the total binding. Assays were incubated to equilibrium for 1 hour at 4° C. and harvested onto GF/C uni-filters (Packard) by filtration using a Packard harvester and washing with ice-cold wash buffer (50 mM Tris; pH 7.5). After drying, filter-retained radioactivity was detected by liquid scintillation counting. Ki values were calculated using Excel-Fit (Microsoft) and are the means of two determinations.

[1] = Table 1, human α5, [3H]flumazenil, mean of two determinations, read-out: Ki h
[2] = human α5β3γ2, 0.5 nM [3H]flumazenil, mean of two determinations, read-out: Ki[μM] hα5

Row | Ki [1] [µM] | Ki [2] [µM] | Structure (SMILES) | Ki [µM]
1 | 0.00455 | 0.00455 | Cc1onc(-c2ccc(F)cc2)c1C(=O)c1c[nH]c2cc(C(=O)NCCN3CCOCC3)ccc12 [Example 14, 3-[3-(4-Fluoro-phenyl)-5-methyl-isoxazole-4-carbonyl]-1H-indole-6-carboxylicacid (2-morpholin-4-yl-ethyl)-amide] | 
2 | 0.111 |  | Cc1onc(-c2cccc(F)c2)c1C(=O)c1cn(C)c2cc(C(=O)NC3CCCC3)ccc12 [Example 46, 3-[3-(3-Fluoro-phenyl)-5-methyl-isoxazole-4-carbonyl]-1-methyl-1H-indole-6-carboxylic acidcyclopentylamide] | 
3 |  |  | Cc1onc(-c2cccc(F)c2)c1C(=O)c1cn(C)c2cc(C(=O)NC3CCOCC3)ccc12 [Example 45, 3-[3-(3-Fluoro-phenyl)-5-methyl-isoxazole-4-carbonyl]-1-methyl-1H-indole-6-carboxylic acid(tetrahydro-pyrann-4-yl)-amide] | 0.049
4 | 0.0033 | 0.0033 | Cc1onc(-c2ccccc2)c1C(=O)c1c[nH]c2cc(C(=O)NCCN3CCOCC3)ccc12 [Example 6, 3-(5-Methyl-3-phenyl-isoxazole-4-carbonyl)-1H-indole-6-carboxylicacid (2-morpholin-4-yl-ethyl)-amide] | 
5 | 0.00265 | 0.00265 | Cc1onc(-c2ccccc2)c1C(=O)c1c[nH]c2cc(C(=O)NCCc3cnc[nH]3)ccc12 [Example 4, 3-(5-Methyl-3-phenyl-isoxazole-4-carbonyl)-1H-indol-6-carboxylicacid [2-(1H-imidazol-4-yl)-ethyl]-amide] | 
6 | 0.0138 |  | Cc1onc(-c2cccc(F)c2)c1C(=O)c1cn(-c2ccccc2)c2cc(C(=O)NCC3CC3)ccc12 [Example 48, 3-[3-(3-Fluoro-phenyl)-5-methyl-isoxazole-4-carbonyl]-1-phenyl-1H-indole-6-carboxylic acidcyclopropylmethyl-amide] | 
7 | 0.0393 |  | CC(C)c1onc(-c2cccc(F)c2)c1C(=O)c1c[nH]c2cc(C(=O)NCC3CC3)ccc12 [Example 37, 3-[3-(3-Fluoro-phenyl)-5-isopropyl-isoxazole-4-carbonyl]-1H-indole-6-carboxylicacidcyclopropylmethyl-amide] | 
8 | 0.059 |  | Cc1onc(-c2cccc(F)c2)c1C(=O)c1c[nH]c2cc(C(=O)NC3CCC3)ccc12 [Example 34, 3-[3-(3-Fluoro-phenyl)-5-methyl-isoxazole-4-carbonyl]-1H-indole-6-carboxylicacidcyclobutylamide] | 
9 | 0.003 | 0.003 | Cc1onc(-c2ccccc2)c1C(=O)c1c[nH]c2cc(C(=O)NC3CC3)ccc12 [Example 8, 3-(5-Methyl-3-phenyl-isoxazole-4-carbonyl)-1H-indole-6-carboxylicacidcyclopropylamide] | 
10 | 0.0454 |  | CC(C)c1onc(-c2cccc(F)c2)c1C(=O)c1c[nH]c2cc(C(=O)NCc3ccco3)ccc12 [Example 36, 3-[3-(3-Fluoro-phenyl)-5-isopropyl-isoxazole-4-carbonyl]-1H-indole-6-carboxylicacid (furan-2-ylmethyl)-amide] | 
11 | 0.0537 |  | Cc1onc(-c2cccc(F)c2)c1C(=O)c1c[nH]c2cc(C(=O)NCC3CC3)ccc12 [Example 30, 3-[3-(3-Fluoro-phenyl)-5-methyl-isoxazole-4-carbonyl]-1H-indole-6-carboxylicacidcyclopropylmethyl-amide] | 
12 | 0.00545 | 0.00545 | Cc1onc(-c2ccccc2)c1C(=O)c1c[nH]c2cc(C(=O)NCC3CC3)ccc12 [Example 2, 3-(5-Methyl-3-phenyl-isoxazole-4-carbonyl)-1H-indole-6-carboxylicacidcyclopropylmethyl-amide] | 
13 | 0.00325 | 0.00325 | C#CCNC(=O)c1ccc2c(C(=O)c3c(-c4ccc(F)cc4)noc3C)c[nH]c2c1 [Example 20, 3-[3-(4-Fluoro-phenyl)-5-methyl-isoxazole-4-carbonyl]-1H-indole-6-carboxylicacid prop-2-ynylamide] | 
14 | 0.00975 | 0.00975 | Cc1onc(-c2ccc(F)cc2)c1C(=O)c1c[nH]c2cc(C(=O)NC3CCCC3)ccc12 [Example 22, 3-[3-(4-Fluoro-phenyl)-5-methyl-isoxazole-4-carbonyl]-1H-indole-6-carboxylicacidcyclopentylamide] | 
15 | 0.00185 | 0.00185 | Cc1onc(-c2ccc(F)cc2)c1C(=O)c1c[nH]c2cc(C(=O)NCCO)ccc12 [Example 18, 3-[3-(4-Fluoro-phenyl)-5-methyl-isoxazole-4-carbonyl]-1H-indole-6-carboxylicacid (2-hydroxy-ethyl)-amide] | 
16 | 0.00675 | 0.00675 | Cc1onc(-c2ccc(F)cc2)c1C(=O)c1c[nH]c2cc(C(=O)NC3CCC3)ccc12 [Example 25, 3-[3-(4-Fluoro-phenyl)-5-methyl-isoxazole-4-carbonyl]-1H-indole-6-carboxylicacidcyclobutylamide] | 
17 | 0.0029 | 0.0029 | C#CCNC(=O)c1ccc2c(C(=O)c3c(-c4ccccc4)noc3C)c[nH]c2c1 [Example 3, 3-(5-Methyl-3-phenyl-isoxazole-4-carbonyl)-1H-indole-6-carboxylicacid prop-2-ynylamide] | 
18 | 0.0098 | 0.0098 | Cc1onc(-c2cccc(F)c2)c1C(=O)c1cn(-c2ccccc2)c2cc(C(=O)NC3CCOCC3)ccc12 [Example 50, 3-[3-(3-Fluoro-phenyl)-5-methyl-isoxazole-4-carbonyl]-1-phenyl-1H-indole-6-carboxylic acid(tetrahydro-pyran-4-yl)-amide] | 
19 | 0.005 | 0.005 | Cc1onc(-c2ccc(F)cc2)c1C(=O)c1c[nH]c2cc(C(=O)NC3CCOCC3)ccc12 [Example 21, 3-[3-(4-Fluoro-phenyl)-5-methyl-isoxazole-4-carbonyl]-1H-indole-6-carboxylicacid (tetrahydro-pyran-4-yl)-amide] | 
20 | 0.0606 |  | C#CCN(C)C(=O)c1ccc2c(C(=O)c3c(-c4ccc(F)cc4)noc3C)c[nH]c2c1 [Example 19, 3-[3-(4-Fluoro-phenyl)-5-methyl-isoxazole-4-carbonyl]-1H-indole-6-carboxylicacid methyl-prop-2-ynyl-amide] | 
21 | 0.0085 | 0.0085 | C#CCNC(=O)c1ccc2c(C(=O)c3c(-c4cccc(F)c4)noc3C)cn(-c3ccccc3)c2c1 [Example 49, 3-[3-(3-Fluoro-phenyl)-5-methyl-isoxazole-4-carbonyl]-1-phenyl-1H-indole-6-carboxylic acidprop-2-ynylamide] | 
22 | 0.00395 | 0.00395 | Cc1onc(-c2ccccc2)c1C(=O)c1c[nH]c2cc(C(=O)NCc3ccccn3)ccc12 [Example 5, 3-(5-Methyl-3-phenyl-isoxazole-4-carbonyl)-1H-indole-6-carboxylicacid (pyridin-2-ylmethyl)-amide] | 
23 | 0.038 |  | Cc1onc(-c2cccc(F)c2)c1C(=O)c1c[nH]c2cc(C(=O)NC3CC3)ccc12 [Example 35, 3-[3-(3-Fluoro-phenyl)-5-methyl-isoxazole-4-carbonyl]-1H-indole-6-carboxylicacidcyclopropylamide] | 
24 | 0.00225 | 0.00225 | Cc1onc(-c2ccc(F)cc2)c1C(=O)c1c[nH]c2cc(C(=O)NCc3cccnc3)ccc12 [Example 24, 3-[3-(4-Fluoro-phenyl)-5-methyl-isoxazole-4-carbonyl]-1H-indole-6-carboxylicacid (pyridin-3-ylmethyl)-amide] | 
25 | 0.0315 |  | C#CCNC(=O)c1ccc2c(C(=O)c3c(-c4cccc(F)c4)noc3C(C)C)c[nH]c2c1 [Example 38, 3-[3-(3-Fluoro-phenyl)-5-isopropyl-isoxazole-4-carbonyl]-1H-indole-6-carboxylicacid prop-2-ynylamide] | 
26 | 0.00365 | 0.00365 | Cc1onc(-c2ccc(F)cc2)c1C(=O)c1c[nH]c2cc(C(=O)NCc3ccncc3)ccc12 [Example 16, 3-[3-(4-Fluoro-phenyl)-5-methyl-isoxazole-4-carbonyl]-1H-indole-6-carboxylicacid (pyridin-4-ylmethyl)-amide] | 
27 | 0.0621 |  | Cc1onc(-c2cccc(F)c2)c1C(=O)c1c[nH]c2cc(C(=O)NCc3ccco3)ccc12 [Example 29, 3-[3-(3-Fluoro-phenyl)-5-methyl-isoxazole-4-carbonyl]-1H-indole-6-carboxylicacid (furan-2-ylmethyl)-amide] | 
28 | 0.00565 | 0.00565 | Cc1onc(-c2ccc(F)cc2)c1C(=O)c1c[nH]c2cc(C(=O)NCc3ccccn3)ccc12 [Example 13, 3-[3-(4-Fluoro-phenyl)-5-methyl-isoxazole-4-carbonyl]-1H-indole-6-carboxylicacid (pyridin-2-ylmethyl)-amide] | 
29 | 0.00435 | 0.00435 | Cc1onc(-c2ccccc2)c1C(=O)c1c[nH]c2cc(C(=O)NC3CCC3)ccc12 [Example 9, 3-(5-Methyl-3-phenyl-isoxazole-4-carbonyl)-1H-indole-6-carboxylicacidcyclobutylamide] | 
30 | 0.0137 |  | Cc1onc(-c2ccccc2)c1C(=O)c1c[nH]c2cc(C(=O)NC3CCCC3)ccc12 [Example 10, 3-(5-Methyl-3-phenyl-isoxazole-4-carbonyl)-1H-indole-6-carboxylicacidcyclopentylamide] | 
